Reference: ChEMBL document CHEMBL4304786, “A novel class of multitarget anti-Alzheimer benzohomoadamantane‒chlorotacrine hybrids modulating cholinesterases and glutamate NMDA receptors” (Eur J Med Chem, 2019)

Experiments:
Acetylcholinesterase [1] = molecular target: T1, Acetylcholinesterase (Homo sapiens, UniProt P22303); experiment: Inhibition of human recombinant AChE expressed in HEK293 cells using acetylthiocholine iodide as substrate preincubated for 20 mins followed by substrate addition by spectrophotometry analysis
T1 sequence (P22303 whole entry): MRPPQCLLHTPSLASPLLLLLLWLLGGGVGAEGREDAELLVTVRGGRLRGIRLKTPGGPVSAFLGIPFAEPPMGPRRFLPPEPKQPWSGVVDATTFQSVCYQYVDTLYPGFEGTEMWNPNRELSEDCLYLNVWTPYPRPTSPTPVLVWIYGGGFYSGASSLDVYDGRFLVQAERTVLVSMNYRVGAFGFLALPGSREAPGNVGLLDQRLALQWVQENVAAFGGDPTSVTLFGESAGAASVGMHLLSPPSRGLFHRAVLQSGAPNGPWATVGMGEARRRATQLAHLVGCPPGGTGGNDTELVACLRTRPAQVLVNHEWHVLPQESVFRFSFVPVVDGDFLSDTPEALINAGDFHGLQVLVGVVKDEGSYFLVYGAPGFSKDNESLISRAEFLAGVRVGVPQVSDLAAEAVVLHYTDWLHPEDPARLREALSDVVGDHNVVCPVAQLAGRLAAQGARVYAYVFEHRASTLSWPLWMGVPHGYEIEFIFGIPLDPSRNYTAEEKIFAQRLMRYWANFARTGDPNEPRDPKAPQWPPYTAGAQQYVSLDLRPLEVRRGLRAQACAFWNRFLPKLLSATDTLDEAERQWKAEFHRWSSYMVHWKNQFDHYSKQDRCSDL

Cholinesterase [2] = molecular target: T2, Cholinesterase (Homo sapiens, UniProt P06276); experiment: Inhibition of human serum BChE using butyrylthiocholine iodide as substrate preincubated for 20 mins followed by substrate addition by spectrophotometry analysis
T2 sequence (P06276 whole entry): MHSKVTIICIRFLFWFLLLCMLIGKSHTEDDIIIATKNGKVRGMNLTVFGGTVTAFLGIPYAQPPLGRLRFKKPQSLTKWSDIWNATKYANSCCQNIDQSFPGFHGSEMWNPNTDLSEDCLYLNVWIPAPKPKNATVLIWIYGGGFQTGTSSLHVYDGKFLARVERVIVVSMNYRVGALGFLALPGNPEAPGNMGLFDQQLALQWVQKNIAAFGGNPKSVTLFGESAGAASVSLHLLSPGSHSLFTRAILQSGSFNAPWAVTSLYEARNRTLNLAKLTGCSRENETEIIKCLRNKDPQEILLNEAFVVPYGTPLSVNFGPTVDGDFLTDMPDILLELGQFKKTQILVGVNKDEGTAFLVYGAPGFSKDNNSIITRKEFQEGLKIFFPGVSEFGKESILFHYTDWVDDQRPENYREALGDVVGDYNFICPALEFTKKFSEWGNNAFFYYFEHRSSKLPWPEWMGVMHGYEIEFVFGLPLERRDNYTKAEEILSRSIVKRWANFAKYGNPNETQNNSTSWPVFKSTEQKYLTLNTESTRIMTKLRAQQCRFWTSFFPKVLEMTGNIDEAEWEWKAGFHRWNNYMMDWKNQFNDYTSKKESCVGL

Glutamate NMDA receptor = experiment: Antagonist activity at NMDA receptor in rat CGN cells assessed as […] in intracellular calcium level incubated for 30 mins in presence of Fura-2AM followed by NMDA/glycine stimulation by fluorescence spectrometer analysis; assay type: cell-based
[3] = molecular target: Amyloid-beta precursor protein (Homo sapiens) (UniProt P05067); experiment: Inhibition of human recombinant amyloid beta (1 to 42) aggregation expressed in Escherichia coli BL21 (DE3) at 10 uM by Thioflavin S steady state fluorescence assay relative to control
Chain of Amyloid-beta precursor protein (Homo sapiens) (P05067 whole entry): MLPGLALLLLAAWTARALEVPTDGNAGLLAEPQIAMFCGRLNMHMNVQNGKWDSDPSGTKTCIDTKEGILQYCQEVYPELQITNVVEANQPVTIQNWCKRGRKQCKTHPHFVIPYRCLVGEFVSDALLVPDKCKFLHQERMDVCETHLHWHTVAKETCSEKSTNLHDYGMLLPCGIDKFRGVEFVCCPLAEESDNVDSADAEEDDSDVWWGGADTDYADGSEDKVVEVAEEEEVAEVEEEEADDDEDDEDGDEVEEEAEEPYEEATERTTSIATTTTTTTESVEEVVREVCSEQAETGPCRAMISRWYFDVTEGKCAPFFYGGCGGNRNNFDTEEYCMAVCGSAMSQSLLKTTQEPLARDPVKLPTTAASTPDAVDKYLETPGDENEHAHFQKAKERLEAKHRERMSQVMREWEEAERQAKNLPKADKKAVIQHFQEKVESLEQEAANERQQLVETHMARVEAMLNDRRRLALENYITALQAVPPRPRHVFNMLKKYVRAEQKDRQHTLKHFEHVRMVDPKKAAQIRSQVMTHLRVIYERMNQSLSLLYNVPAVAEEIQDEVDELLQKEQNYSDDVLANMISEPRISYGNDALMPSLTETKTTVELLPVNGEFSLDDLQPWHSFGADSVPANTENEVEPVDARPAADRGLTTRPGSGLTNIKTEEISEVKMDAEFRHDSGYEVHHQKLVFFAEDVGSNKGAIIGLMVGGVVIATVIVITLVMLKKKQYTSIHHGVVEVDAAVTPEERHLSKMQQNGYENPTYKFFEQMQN

[4] = molecular target: Microtubule-associated protein tau (Homo sapiens) (UniProt P10636); experiment: Inhibition of tau aggregation (unknown origin) expressed in Escherichia coli BL21 (DE3) at 10 uM by Thioflavin S steady state fluorescence assay relative to control
Chain of Microtubule-associated protein tau (Homo sapiens) (P10636 whole entry): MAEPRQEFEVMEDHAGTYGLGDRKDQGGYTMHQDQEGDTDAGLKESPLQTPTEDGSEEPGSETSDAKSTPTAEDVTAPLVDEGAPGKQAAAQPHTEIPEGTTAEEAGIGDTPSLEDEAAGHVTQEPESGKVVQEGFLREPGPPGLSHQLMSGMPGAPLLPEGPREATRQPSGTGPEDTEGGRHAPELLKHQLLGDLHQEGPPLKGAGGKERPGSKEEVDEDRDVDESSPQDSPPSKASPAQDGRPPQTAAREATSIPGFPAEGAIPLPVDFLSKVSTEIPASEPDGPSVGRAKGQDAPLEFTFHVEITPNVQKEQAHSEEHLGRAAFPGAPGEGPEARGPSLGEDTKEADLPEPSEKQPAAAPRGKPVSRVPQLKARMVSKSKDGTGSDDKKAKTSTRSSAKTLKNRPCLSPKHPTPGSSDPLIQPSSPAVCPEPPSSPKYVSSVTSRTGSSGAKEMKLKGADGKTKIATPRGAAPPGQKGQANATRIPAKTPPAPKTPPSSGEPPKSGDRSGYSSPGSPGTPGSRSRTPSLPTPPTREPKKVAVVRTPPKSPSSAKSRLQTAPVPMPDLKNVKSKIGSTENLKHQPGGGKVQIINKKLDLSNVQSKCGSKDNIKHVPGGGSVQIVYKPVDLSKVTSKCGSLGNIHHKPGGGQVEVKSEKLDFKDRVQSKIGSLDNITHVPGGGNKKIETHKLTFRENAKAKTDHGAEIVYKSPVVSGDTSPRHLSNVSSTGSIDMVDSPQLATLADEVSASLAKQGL

[5] = molecular target: Beta-secretase 1 (Homo sapiens) (UniProt P56817); experiment: Inhibition of human recombinant BACE-1 expressed in baculovirus expression system at 5 uM using panvera peptide as substrate measured after 1 hr by FRET assay relative to control
Chain of Beta-secretase 1 (Homo sapiens) (P56817 whole entry): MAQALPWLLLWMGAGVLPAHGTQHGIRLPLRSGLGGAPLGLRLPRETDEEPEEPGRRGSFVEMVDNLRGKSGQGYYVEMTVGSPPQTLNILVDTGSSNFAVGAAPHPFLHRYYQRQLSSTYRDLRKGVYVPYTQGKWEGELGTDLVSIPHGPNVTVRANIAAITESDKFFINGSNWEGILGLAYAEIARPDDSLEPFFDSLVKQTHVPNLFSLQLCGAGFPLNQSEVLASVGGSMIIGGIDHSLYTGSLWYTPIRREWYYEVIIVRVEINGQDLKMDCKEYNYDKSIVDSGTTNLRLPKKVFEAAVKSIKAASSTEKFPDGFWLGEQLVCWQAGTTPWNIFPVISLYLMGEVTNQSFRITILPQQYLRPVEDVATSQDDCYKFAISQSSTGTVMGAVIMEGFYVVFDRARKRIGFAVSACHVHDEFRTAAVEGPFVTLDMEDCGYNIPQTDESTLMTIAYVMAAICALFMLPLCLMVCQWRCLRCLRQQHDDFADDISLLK

Acetylcholinesterase [6] = molecular target: T1, Acetylcholinesterase; experiment: Potency index, ratio of IC50 for 6-cholorotacrine to compound IC50 for Inhibition of human recombinant AChE expressed in HEK293 cells; assay type: cell-based
in vitro = conditions: PAMPA
Description: Permeability of the compound measured after compound dilution in PBS/EtOH buffer (70:30) by PAMPA-BBB assay

[7] = molecular target: T3, Glutamate NMDA receptor (Rattus norvegicus) (UniProt P35439+Q00959+Q00960+Q00961+Q62645+Q8VHN2+Q9R1M7); experiment: Potency index, ratio of memantine IC50 to compound IC50 for antagonist activity at NMDA receptor in rat CGN cells; assay type: cell-based
Cholinesterase [8] = molecular target: T2, Cholinesterase; experiment: Potency index, ratio of IC50 for 6-cholorotacrine to compound IC50 for Inhibition of human serum BChE
[9] = molecular target: Glutamate NMDA receptor; GRIN1/GRIN2B (Homo sapiens, UniProt Q05586+Q13224); experiment: Inhibition of recombinant GluN1/GluN2B receptor (unknown origin) expressed in HEK293 cells by patch-clamp method; assay type: cell-based
Chain of Glutamate NMDA receptor; GRIN1/GRIN2B (Q13224 whole entry, other chains not shown): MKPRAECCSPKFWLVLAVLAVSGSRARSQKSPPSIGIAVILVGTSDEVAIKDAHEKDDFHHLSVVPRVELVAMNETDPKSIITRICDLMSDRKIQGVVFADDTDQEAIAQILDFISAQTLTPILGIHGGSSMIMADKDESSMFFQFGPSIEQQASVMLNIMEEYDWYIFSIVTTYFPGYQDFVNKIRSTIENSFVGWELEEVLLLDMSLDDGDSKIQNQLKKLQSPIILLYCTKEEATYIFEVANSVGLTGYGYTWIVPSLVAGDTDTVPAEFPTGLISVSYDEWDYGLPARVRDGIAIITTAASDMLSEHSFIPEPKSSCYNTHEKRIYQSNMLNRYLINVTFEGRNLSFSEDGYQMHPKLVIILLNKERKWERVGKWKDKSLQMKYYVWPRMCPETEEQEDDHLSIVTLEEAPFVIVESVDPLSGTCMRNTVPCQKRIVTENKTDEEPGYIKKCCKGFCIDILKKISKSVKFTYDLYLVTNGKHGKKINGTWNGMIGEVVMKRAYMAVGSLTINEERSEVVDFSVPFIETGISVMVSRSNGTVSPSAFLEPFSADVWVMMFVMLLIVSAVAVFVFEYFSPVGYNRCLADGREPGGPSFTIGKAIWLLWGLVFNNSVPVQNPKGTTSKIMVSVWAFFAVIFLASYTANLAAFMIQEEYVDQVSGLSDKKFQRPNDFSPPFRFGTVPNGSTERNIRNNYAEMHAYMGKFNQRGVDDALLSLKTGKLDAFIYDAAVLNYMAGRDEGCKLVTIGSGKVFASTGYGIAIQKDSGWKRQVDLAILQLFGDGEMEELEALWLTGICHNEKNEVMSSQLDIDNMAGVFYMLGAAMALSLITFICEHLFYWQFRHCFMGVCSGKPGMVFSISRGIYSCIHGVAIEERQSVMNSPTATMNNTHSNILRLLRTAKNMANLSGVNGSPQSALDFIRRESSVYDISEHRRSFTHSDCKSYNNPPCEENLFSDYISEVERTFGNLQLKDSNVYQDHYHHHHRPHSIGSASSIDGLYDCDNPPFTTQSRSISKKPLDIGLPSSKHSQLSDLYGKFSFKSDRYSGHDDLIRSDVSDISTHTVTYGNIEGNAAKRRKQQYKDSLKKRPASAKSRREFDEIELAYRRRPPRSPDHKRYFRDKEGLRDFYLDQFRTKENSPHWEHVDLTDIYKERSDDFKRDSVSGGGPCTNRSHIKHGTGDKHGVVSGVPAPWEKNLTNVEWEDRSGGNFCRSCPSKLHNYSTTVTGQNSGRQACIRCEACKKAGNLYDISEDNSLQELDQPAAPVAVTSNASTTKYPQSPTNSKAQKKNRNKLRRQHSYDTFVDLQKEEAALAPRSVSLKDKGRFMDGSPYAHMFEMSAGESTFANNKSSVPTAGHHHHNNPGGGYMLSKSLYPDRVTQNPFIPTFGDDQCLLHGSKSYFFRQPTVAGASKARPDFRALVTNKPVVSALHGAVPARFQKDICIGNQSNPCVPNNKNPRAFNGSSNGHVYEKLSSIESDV

[10] = molecular target: T3, Glutamate NMDA receptor (Rattus norvegicus); experiment: Potency index, ratio of benzoho-moadamantanamine IC50 to compound IC50 for antagonist activity at NMDA receptor in rat CGN cells; assay type: cell-based

Compound: O=C(CCCNc1c2c(nc3cc(Cl)ccc13)CCCC2)NC12CC3CC(F)(CC(C1)c1ccccc13)C2
- IC50 (Acetylcholinesterase [1]): 0.0014 µM
- IC50 (Cholinesterase [2]): 2.3 µM
- IC50 (Glutamate NMDA receptor): 7 µM
- inhibition [3]: < 5%
- inhibition [4]: 10.2%
- inhibition [5]: 18%
- Ratio IC50 (Acetylcholinesterase [6]): 6 to 44
- Papp (in vitro): 98 nm/s

Compound: CC12CC3CC(C)(C1)CC(N)(C3)C2
- inhibition [5]: 18%

Compound: NC12CC3CC(F)(CC(C1)c1ccccc13)C2
- IC50 (Glutamate NMDA receptor): 1.9 µM
- Ratio IC50 [7]: 1.7
- inhibition [5]: 18%

Compound: FC12CC3CC(NCCCCNc4c5c(nc6cc(Cl)ccc46)CCCC5)(CC(C1)c1ccccc13)C2
- IC50 (Acetylcholinesterase [1]): 0.002 µM
- IC50 (Cholinesterase [2]): 1.1 µM
- IC50 (Glutamate NMDA receptor): 3.3 µM
- inhibition [3]: 8.4%
- inhibition [4]: 22%
- inhibition [5]: 18%
- Ratio IC50 (Acetylcholinesterase [6]): 6 to 44
- Papp (in vitro): 63 nm/s

Compound: NC12CC3CC(F)(CC(C1)c1cc(NC(=O)CCCCNc4c5c(nc6cc(Cl)ccc46)CCCC5)ccc13)C2 (configuration not stated)
- IC50 (Acetylcholinesterase [1]): 0.0025 µM
- IC50 (Cholinesterase [2]): 0.02 µM
- IC50 (Glutamate NMDA receptor): 3.4 µM
- inhibition [3]: < 5%
- inhibition [4]: 22.9%
- inhibition [5]: 18%
- Ratio IC50 (Acetylcholinesterase [6]): 44
- Ratio IC50 (Cholinesterase [8]): 24
- Papp (in vitro): 31 nm/s

Compound: COc1ccc2nc3c(c(NCCCCCNC(=S)NC45CC6CC(CC(C6)C4)C5)c2c1)CCCC3
- Ki [9]: 1.8 µM

Compound: O=C(CCCCNc1c2c(nc3cc(Cl)ccc13)CCCC2)NC12CC3CC(F)(CC(C1)c1ccccc13)C2
- IC50 (Acetylcholinesterase [1]): 0.0013 µM
- IC50 (Cholinesterase [2]): 2.4 µM
- IC50 (Glutamate NMDA receptor): 8.3 µM
- inhibition [3]: 9%
- inhibition [4]: 12.6%
- inhibition [5]: 18%
- Ratio IC50 (Acetylcholinesterase [6]): 6 to 44
- Papp (in vitro): 90 nm/s

Compound: FC12CC3CC(NCCCCCNc4c5c(nc6cc(Cl)ccc46)CCCC5)(CC(C1)c1ccccc13)C2
- Ratio IC50 [10]: 2
- IC50 (Acetylcholinesterase [1]): 0.0014 µM
- IC50 (Cholinesterase [2]): 0.2 µM
- IC50 (Glutamate NMDA receptor): 0.9 µM
- inhibition [3]: 12.3%
- inhibition [4]: 20.7%
- Ratio IC50 [7]: 1.7
- inhibition [5]: 18%
- Ratio IC50 (Acetylcholinesterase [6]): 6 to 44
- Ratio IC50 (Cholinesterase [8]): 2
- Papp (in vitro): 65 nm/s

Compound: NC12CC3CC(F)(CC(C1)c1cc(NC(=O)CCCNc4c5c(nc6cc(Cl)ccc46)CCCC5)ccc13)C2 (configuration not stated)
- Ratio IC50 [10]: 2
- IC50 (Acetylcholinesterase [1]): 0.0003 µM
- IC50 (Cholinesterase [2]): 0.5 µM
- IC50 (Glutamate NMDA receptor): 1.2 µM
- inhibition [3]: < 5%
- inhibition [4]: 6.9%
- Ratio IC50 [7]: 1.7
- inhibition [5]: 18%
- Ratio IC50 (Acetylcholinesterase [6]): 6 to 44
- Papp (in vitro): 27 nm/s

Compound: Nc1c2c(nc3cc(Cl)ccc13)CCCC2
- inhibition [4]: < 5%
- inhibition [5]: 18%
- Papp (in vitro): 200 nm/s
